assay: Human HepG2 cell viability assay in 384 well format; assay type: toxicity, cell-based; set-up: dose 125 nL, time 70.5 hour; cytotoxicity at 70.5 h: concentration not given beside the values; details: HepG2 cells, read-out: Inhibition

Structure (SMILES)	cytotoxicity at 70.5 h [%]
Cc1nc(-c2ccncc2)ncc1C(C)NC(=O)CN1CCCCC1 (configuration not stated)	-7.41
Cn1cc(C(=O)NCc2cn3c(n2)CN(C2CCOCC2)CC3)cn1	-109
CCC(C(=O)NCc1noc(Cc2cccs2)n1)n1cccn1 (configuration not stated)	26
CCC(=O)N1CCN(c2ccc(C(=O)OC)cc2)CC1C (configuration not stated)	-0.474
NC(=O)c1cnc(NC(=O)CCc2ccco2)c(Cl)c1	-2.14
CSc1nccc(N2CCC(=O)N(CC3CC3)C(C(C)C)C2)n1 (configuration not stated)	54.1
CCOCCCNC(=O)NC(C)c1ccc(-n2cncn2)cc1 (configuration not stated)	-5.55
CC(C)c1ccc(CNC(C)c2ccc(S(C)(=O)=O)cc2)cc1 (configuration not stated)	-8.82
COC(=O)c1ccoc1CN(C)Cc1ccccc1	-0.994
Cc1ccsc1[C@@H]1CCN(C(=O)CCc2nc3ccccc3[nH]2)C[C@H]1O	5.42
CCn1cnnc1C1CCN(C(=O)c2cccc(N(C)C)c2)CC1	1.66
O=C(c1ccsc1)N1CCc2nnc(COc3cncnc3)n2CC1	26.7
O=C(c1cc2cc(F)ccc2[nH]1)N1CCC(Nc2ccc(F)cc2)CC1	-4.25
CC(=O)NCC1CCN(c2cc(C)nc(-c3ccncc3)n2)CC1	-10.9
COc1ccc(-c2nccn2C[C@@H]2CCCN3CCCC[C@H]23)cc1	1.3
CC(c1nc(C2CC2)no1)N1CCN(c2ccc(C#N)cn2)CC1 (configuration not stated)	-10.6
CN1CCCCC1c1cncc(Cl)n1 (configuration not stated)	-0.934
CN1CCCC1c1cccc(Cc2ccc(F)cc2)n1 (configuration not stated)	17
CN1CCN(c2ccc(NCc3ccsc3)cn2)CC1	-8.79
CCc1nccn1C1CCCN(C(=O)c2ccc(C(=O)NC)nc2)C1 (configuration not stated)	-5.35
COCCN1C[C@H]2[C@@H](C1)N(Cc1ccc(C)o1)CC[C@H]2OC	-5.94
Cc1nc(C)n(CC2CCCN2Cc2nc3ccccc3o2)n1 (configuration not stated)	-5.98
Cc1ccc2c(c1)CCC21CCN(C(=O)CO)CC1	-8.48

Structure (SMILES)	cytotoxicity at 70.5 h [%]
CC(C)c1noc(CN(C)C(=O)c2ncn[nH]2)n1	3.61
Cc1ccc(-c2nc(CNCC3CN(C)CCO3)co2)c(C)c1 (configuration not stated)	5.24
O=C(NS(=O)(=O)Cc1ccc(F)cc1)C1CCOc2ccccc21 (configuration not stated)	-9.19
O=C(Cc1cccc(F)c1)NCCNS(=O)(=O)C1CCCC1	-12.5
COc1cc2c(cc1OC)S(=O)(=O)N(Cc1cc(C)on1)C2=O	-4.33
Cc1nccn1CCN(C)c1cc(C(C)C)nc2ccnn12	-2.26
CN(C)CCN1CCO[C@@H]2CN(C(=O)c3cccs3)CC[C@@H]2C1	-16.4
CO[C@H]1CN(C(=O)c2nc(-c3ccccc3)[nH]c2C)CC[C@H]1N	25.8
O[C@]12CCNC[C@H]1CN(c1ccnc3ccccc13)CC2	22.4
Cc1cccc(CN2C[C@@H](NC(=O)C3CC3)[C@H]3OCCC[C@H]32)n1	4.63
Cc1cc2c(cc1NC(N)=O)OCO2	-4.79
O=S(=O)(c1ccccc1N1CC(n2cccn2)C1)C(F)(F)F	1.67
NC(=O)c1ccc(OCCC(=O)NC2CCc3c(F)cccc32)cc1 (configuration not stated)	21.4
CC(C)CN1Cc2nc(N3CCCC(C)C3)ncc2C1=O (configuration not stated)	-9.32
Cc1cc(NC(=O)CNC2CCc3nc(C(C)C)nn3C2)no1 (configuration not stated)	-6.53
COc1ccccc1[C@@H]1CN(Cc2nccn2C)C[C@H]1C(=O)O	-3.84
O=S1(=O)NCC2(CCN(Cc3ccncc3)CC2)Oc2ncccc21	23.1
COCC(c1cccc(C(F)(F)F)c1)N(C)C(=O)c1ccco1 (configuration not stated)	-1.02
O=C(NC1CCCCC1)N1C[C@H]2CN(c3cnccn3)C[C@@]2(C(=O)O)C1	-14.9
CCN(C)CC1CCN(S(=O)(=O)c2cc(C)c(F)cc2Cl)C1 (configuration not stated)	-4.14
CN(Cc1cn2c(n1)CN(Cc1ccc(F)cc1)CC2)Cc1ccco1	-8.36
CN1CC(C(=O)Nc2ccc(OCC(F)(F)C(F)F)nc2)CC1=O (configuration not stated)	-7.73
Cc1cccnc1NC(=O)C1(n2cnnn2)CCCCC1	-30.1

Structure (SMILES)	cytotoxicity at 70.5 h [%]
CN1CCN(CCCNC(=O)C2CCCCC2)CC1	12.1
c1ccc2nc(N3CCCC3)c(NCc3nnc4n3CCC4)nc2c1	-9.07
Cc1c(C2CCCN(C(=O)c3cccnc3)C2)n2c(nc1=O)CCC2 (configuration not stated)	-8.11
COc1cccc(CN(C)C(=O)CCC(=O)c2ccccc2)c1OC	-9.57
CC(=O)c1ccc(N2CCN(C(=O)NC(C)c3ccc(C)o3)CC2)cc1 (configuration not stated)	-3.78
Cn1ccnc(Nc2ccc3c(c2)CCN3C(=O)c2ccoc2)c1=O	-10
Cc1cc(CN2C[C@@H]3CN(C(=O)c4cccn4C)CCO[C@@H]3C2)no1	1.95
Cc1cnc(CN(C)Cc2cccc(OC(F)(F)F)c2)cn1	-3.82
OC[C@H]1CCCN1c1nccc(-c2c[nH]nc2C2CCCCC2)n1	2.37
CS(=O)(=O)N1CCC2(CC1)CN(CCn1cccn1)C(=O)CO2	8.7
Cc1cc(C)nc(N2CC[C@@]3(O)CCN(S(=O)(=O)N(C)C)C[C@H]3C2)n1	16.5
Cc1cc(NC(=O)c2nn(C3CCS(=O)(=O)C3)c3c2CCCC3)no1 (configuration not stated)	-24.1
CCN(Cc1ccc(C#N)cc1F)C(=O)CN(C)CC(N)=O	-4.58
CNC(=O)c1ccc(C(=O)N2CCCC(n3nc(C)cc3C)C2)cn1 (configuration not stated)	-12.8
CCN1CCOC(CNCc2ccc(OC)c(F)c2)C1 (configuration not stated)	-6.46
O=S(=O)(N1CCCCCC1)N1CCc2sccc2C1	-5.4
CN(C)C(=O)C1OC2(CCN(C(=O)c3ccco3)CC2)c2ccccc21 (configuration not stated)	-16.7
CCOCCN1CCN(CC(O)c2cc(Cl)ccc2Cl)CC1 (configuration not stated)	-5.82
Cc1noc2nc(C3CCN(Cc4ccncc4)CC3)cc(C(F)F)c12	31.7
Cc1ccc(CNCCCNS(C)(=O)=O)c(Br)c1	4
O=C(COCCc1ccccc1)N1CCCC(n2cncn2)C1 (configuration not stated)	1.67
CC1(C)CN(C(CNS(N)(=O)=O)c2ccc(Cl)cc2)CCO1 (configuration not stated)	-3.76
Cc1cc(C)n(CCN(C)c2ccc(-c3nc(C4CC4)no3)cn2)n1	10.5

Structure (SMILES)	cytotoxicity at 70.5 h [%]
COc1ccc(OC)c(C(=O)N2CCC(Nc3cccnc3)CC2)c1	-0.864
CNC(=O)C1CCN(Cc2cc3c(cc2O)CCC3)CC1	27
c1cncc(C(Cn2cnnc2)N2CCOCC2)c1 (configuration not stated)	2.14
CSc1ccc(NC(=O)NCC(O)C2CC2)cc1F (configuration not stated)	7.73
CC(=O)N1CCCC(c2nc(-c3ccccc3)c[nH]2)C1 (configuration not stated)	-3.53
COc1ccccc1C1(O)CCCN(C(=O)c2csc(C(C)=O)c2)C1 (configuration not stated)	-1.27
CCc1nc(CN(C)CC(c2cccs2)N2CCOCC2)no1 (configuration not stated)	18.8
CC(=O)c1cccc(NC(=O)C2CN(S(=O)(=O)C3CC3)C2)c1	-2.67
NC(=O)C(CNC(=O)COCC(F)(F)F)Cc1ccc(F)cc1 (configuration not stated)	-18.2
Cc1cc2n(n1)CC(CNCc1cnn(C)c1)CN2 (configuration not stated)	-15
OCCOCCNCC1(c2ccc(F)cc2)CCOC1 (configuration not stated)	-0.024
Cn1cccc1C(=O)N1C[C@@H]2COC[C@]2(CNS(C)(=O)=O)C1	-1.05
Cc1noc(C)c1CN1C[C@@H](N(C)Cc2ccco2)[C@H]2OCCC[C@H]21	-6.48
O=C(N[C@@H]1CN(Cc2ccccn2)[C@@H]2COC[C@@H]21)C1CCC1	-1.02
Cn1cc(Br)cc(NC(=O)CC2CCC2)c1=O	-6.41
CNC(=O)c1ccc(CNC(=O)NCCN(C)C2CCCC2)cc1	-1.36
Cc1nc(-c2nnc[nH]2)sc1C(=O)N1CCCC1CC(C)(C)C (configuration not stated)	-5.06
Cn1ccnc1CN1CCC2(CC(=O)N(c3ccsc3)C2)C1 (configuration not stated)	-8.8
Cc1cnn(CCNCc2csc(-c3ccc4c(c3)OCO4)n2)c1	10.2
FC(F)(F)c1cc(C2CCN(c3cnccn3)CC2)n2ccnc2n1	-5.4
O=C(Cc1ccc(F)c(Br)c1)N1CCN(CCO)CC1	-3.28
O=c1cc(CN2CC[C@@]3(O)CCCC[C@H]3C2)c2cccc3c2n1CCC3	-11.8
Cc1ccc(C(=O)N(Cc2ccc(F)cc2)C2CC2)c(=O)[nH]1	-3.98

Structure (SMILES)	cytotoxicity at 70.5 h [%]
CCS(=O)(=O)N1CCC2(CN(c3cc(OC)ncn3)C2)C1	12.1
NC(Cc1nc(-c2ccccc2)no1)c1ccccc1 (configuration not stated)	-6.63
CCN1CC2(CNCCN(C(=O)Nc3ccccc3)C2)CC1=O (configuration not stated)	2.39
CCC(C)n1cnc(S(=O)(=O)N(Cc2cccnc2)C(C)C)c1 (configuration not stated)	3.97
Cc1ccc(C(=O)N2CCn3cnc(COCC4CC4)c3C2)cn1	-5.4
COc1ccc(S(=O)(=O)N2Cc3c(CN(C)C)nn(C)c3C2)cc1	-3.13
O=C(c1ccno1)N1CC[C@@H]2O[C@H](COCCN3CCCC3)CC[C@@H]21	9.33
CC1COCCN1Cc1nc(C(C)(C)C)no1 (configuration not stated)	-6.43
O=C(NCc1cccc(F)c1)N1CCC2(CC(=O)N(c3ccsc3)C2)C1 (configuration not stated)	4.74
c1ccc(CO[C@@H]2CC[C@H]3[C@H]2OCCN3Cc2ccsc2)nc1	8.96
CCc1cnc(N)nc1N[C@@H](C)c1ncccc1C	-12.4
Cc1ccc(CCNc2nc(-c3ccncc3)nc3c2CCNCC3)o1	2.56
O=C(CCc1cc2n(n1)CCN(Cc1ncc[nH]1)C2)N1CCCC1	2.55
COC(=O)c1cccc(C(=O)N2CCN(c3ccccc3F)CC2)n1	28.8
Cc1nnc2n1CCN(CCS(=O)(=O)c1ccc(Cl)cc1)C2	2.97
Cc1cc(C(=O)N2CCN(C(=O)CCC3CCCCC3)CC2)n(C)n1	-18.7
CC(c1ncc(C(C)(C)C)o1)N1CCN(Cc2ccco2)CC1 (configuration not stated)	-5.45
c1cnc(-c2nc(CN3CCCC3Cn3cncn3)cs2)nc1 (configuration not stated)	-5.35
COc1ccccc1CC(=O)N(C)Cc1cc(C)on1	-3.86
CSc1ncccc1C(=O)N1C[C@H]2CC[C@@H]1CN(C(=O)N(C)C)C2	-7.79

Source: ChEMBL document CHEMBL3507680, “University of Dundee, Gates Library screen for HepG2 cell viability”
